Experimental findings from patent US8841004B2, “Binaphthyl compound and organic light emitting element using the same” (Canon Kabushiki Kaisha, priority 2007, dated 2014) are described below.

Converted amounts (≈) assume the structure as drawn.

The series is described as follows: Solubility in chlorobenzene heated at 130° C. It is filed as physicochemical. As to the method: Solubility of Example Compound A-02 in chlorobenzene heated at 130° C. was examined.
Comparative Compound H-2 (Comparative Example 2), Comparative Compound H-3 (Comparative Example 3) and Comparative Compound H-5 (Comparative Example 5) were respectively synthesized and solubility in chlorobenzene was examined in the same manner as in Example 1-(C). The results are shown in Table 3 along with those of Examples 1 to 3.
As for `CC1(C)c2ccccc2-c2ccc(-c3ccc4cc(-c5ccc6cc(-c7ccc8c(c7)C(C)(C)c7ccccc7-8)ccc6c5)ccc4c3)cc21` [Comparative Compound H-2], the “Solubility (chlorobenzene, 130° C.)” value worked out at 3300 µg/mL (≈ 5.17 mM).

Regarding `CC1(C)c2ccccc2-c2ccc(-c3ccc4cc(-c5ccc6cc(-c7ccc8cc(-c9ccc%10c(c9)C(C)(C)c9ccccc9-%10)ccc8c7)ccc6c5)ccc4c3)cc21` [Comparative Compound H-3], the “Solubility (chlorobenzene, 130° C.)” value is “less than 0.6 g/L”.

As for `CC1(C)c2cc(-c3ccc4c(c3)C(C)(C)c3cc(-c5ccc6ccccc6c5)ccc3-4)ccc2-c2ccc(-c3ccc4c(c3)C(C)(C)c3cc(-c5ccc6ccccc6c5)ccc3-4)cc21` [Comparative Compound H-5], the “Solubility (chlorobenzene, 130° C.)” value turned out to be 3500 µg/mL (≈ 4.21 mM).

For `CC1(C)c2ccccc2-c2ccc(-c3ccc4c(c3)C(C)(C)c3cc(-c5ccc6cc(-c7ccc8ccccc8c7)ccc6c5)ccc3-4)cc21` [Example Compound A-02], the “Solubility (chlorobenzene, 130° C.)” value is 16000 µg/mL (≈ 25 mM).

In the case of `CC1(C)c2ccccc2-c2ccc(-c3ccc4c(c3)C(C)(C)c3cc(-c5ccc6c(c5)C(C)(C)c5cc(-c7ccc8cc(-c9ccc%10ccccc%10c9)ccc8c7)ccc5-6)ccc3-4)cc21` [Example Compound B-18], the “Solubility (chlorobenzene, 130° C.)” value was 9400 µg/mL (≈ 11.3 mM).
